Assay results from patent US20050049186A1, “Peptides mimicking the biological activity of steroid hormones and their uses” (priority 2000, published 2005).
pIC50: −log10 of the molar value. Peptide text beside a SMILES is read from it.

Columns and labels:
[1] = tested on: anti-progesterone mAb clone 1E11; assay: RIA: competition with [3H]-progesterone for anti-progesterone clone 1E11; parameters: species or system mouse; details: FIG. 4, read-out: IC50, competition with [3H]-progesterone for binding sites of anti-progesterone clone 1E11
Excerpt: In order to confirm the specific binding activity of the peptides 3 and 4 for the anti-progesterone mnAb clone 1E11, a RIA system where the peptides competed with [^3H]-progesterone for the binding sites of clone 1E11 was used. […]

[2] = tested on: creatine kinase (CK) specific activity in rat tissues; assay: Stimulation of creatine kinase specific activity in rat tissues in vivo; details: for Creatine kinase specific activity (Experimental/control), Aorta / Creatine kinase specific activity (Experimental/control), Diapysis / Creatine kinase specific activity (Experimental/control), Epipysis / Creatine kinase specific activity (Experimental/control), Uterus / Creatine kinase specific activity (Experimental/control), LV (left ventricle): four hours after treatment, peptides and raloxifene 0.5 mg/rat, mean ± S.E.M., n=15
Method: The control goups received 0.5 ml saline containing 0.5% ethanol or tris-saline alone. The various organs were assayed for CK activity four hours after treatment.

[3] = tested on: anti-E2 antibodies, clones 8D9, 11B6 and 2F9; assay: ELISA: competition with solid-phase estradiol ovalbumin conjugate for other high affinity anti-E2 antibodies; type: binding; details: peptide at 0.5 mM
Excerpt: (§1) ELISA methodology was used first for the initial screening of the various peptides for antibody binding specificity.

[4] = tested on: anti-progesterone, clone 1E11, anti-estriol, clone 9B4, anti-testosterone, clone 5F2; assay: ELISA: competition with solid phase hapten protein conjugates for homologous anti-steroidal antibodies; type: binding; details: data not shown
Excerpt: as §1

[5] = target: ER β (Homo sapiens, UniProt Q92731); assay: Receptor binding assay for estrogen receptor beta
[6] = target: anti-estradiol mAb, clone 15; assay: Competitive binding radioimmunoassay with [3H]-estradiol; parameters: species or system mouse; details: RIA, FIG. 1; read-out: IC50, competition with [3H]-estradiol for binding sites of anti-estradiol mAb clone 15
[7] = target: anti-estradiol mAb clone 15; assay: Competitive immunoassay: inhibition of binding of labeled E2 (estradiol ovalbumin europium conjugate) to anti-E2 clone 15; parameters: species or system mouse; details: Table 5; estradiol ovalbumin europium conjugate
Excerpt: […]. The linear peptide 1 is 15-amino acid long. We further explored the possibility whether smaller peptides derived from peptide 1 may have antibody binding activity and receptor binding activity. In order to find out the minimum amino acid sequence required in the linear peptide 1 for antibody and receptor binding, several peptides with varying length of from 4 to 14 amino acids long were synthesized, and were first evaluated in terms of binding to anti-estradiol (E2) mAb clone 15. The peptides showing similar or better antibody binding activity than the linear peptide 1 were further evaluated in terms of binding to ERα and β.

[8] = tested on: anti-E2, clone 15; assay: ELISA: competition with solid-phase estradiol ovalbumin conjugate for anti-E2 clone 15; type: binding, mouse
Excerpt: as §1

[9] = immature female rats, estradiol 5 μg/rat

ER β, sequence (Q92731 whole entry, species assumed): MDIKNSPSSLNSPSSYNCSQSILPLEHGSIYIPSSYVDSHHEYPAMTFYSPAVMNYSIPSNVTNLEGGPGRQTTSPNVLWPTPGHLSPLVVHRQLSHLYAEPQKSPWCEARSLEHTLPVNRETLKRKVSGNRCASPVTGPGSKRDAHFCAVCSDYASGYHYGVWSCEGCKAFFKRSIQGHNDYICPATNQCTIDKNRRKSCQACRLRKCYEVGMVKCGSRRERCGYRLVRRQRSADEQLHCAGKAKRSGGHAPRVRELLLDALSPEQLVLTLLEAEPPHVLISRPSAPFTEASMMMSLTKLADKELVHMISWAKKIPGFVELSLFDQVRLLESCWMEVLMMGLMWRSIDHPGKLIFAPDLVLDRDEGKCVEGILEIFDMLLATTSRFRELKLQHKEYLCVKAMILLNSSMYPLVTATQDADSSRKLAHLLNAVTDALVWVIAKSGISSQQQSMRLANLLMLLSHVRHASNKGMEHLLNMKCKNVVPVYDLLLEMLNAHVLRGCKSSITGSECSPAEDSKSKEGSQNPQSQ

| SMILES | pIC50 [1] | Creatine kinase specific activity (Experimental/control), Aorta [2, 9] | Creatine kinase specific activity (Experimental/control), Diapysis [2, 9] | Creatine kinase specific activity (Experimental/control), Epipysis [2, 9] | Creatine kinase specific activity (Experimental/control), Uterus [2, 9] | Creatine kinase specific activity (Experimental/control), LV (left ventricle) [2, 9] | also measured |
| --- | --- | --- | --- | --- | --- | --- | --- |
| CC(=O)[C@H]1CC[C@H]2[C@@H]3CCC4=CC(=O)CC[C@]4(C)[C@H]3CC[C@]12C [Progesterone, progesterone, reference compound] | > 9.00 |  |  |  |  |  |  |
| C[C@]12CC[C@@H]3c4ccc(O)cc4CC[C@H]3[C@@H]1CC[C@@H]2O [Estradiol, estradiol] |  | 2.0 ± 0.18 | 1.87 ± 0.1 | 1.37 ± 0.07 | 1.37 ± 0.07 |  |  |
| CC(C)[C@H](NC(=O)[C@H](Cc1c[nH]cn1)NC(=O)[C@@H]1CSSC[C@H](NC(=O)[C@H](Cc2ccccc2)NC(=O)[C@@H]2CCCN2C(=O)[C@H](CC(N)=O)NC(=O)[C@@H](N)CO)C(=O)N[C@@H](CCC(N)=O)C(=O)N[C@@H]([C@@H](C)O)C(=O)N[C@@H](CC(=O)O)C(=O)NCC(=O)N[C@@H](CC(=O)O)C(=O)N1)C(=O)N[C@@H](Cc1c[nH]cn1)C(=O)N[C@H](C(=O)O)[C@@H](C)O [Peptide 4] (HELM PEPTIDE1{S.N.P.F.C.Q.T.D.G.D.C.H.V.H.T}$PEPTIDE1,PEPTIDE1,5:R3-11:R3$$$V2.0; N-terminus and C-terminus assumed; bridges inferred) | ~5.30 |  |  |  |  |  |  |
| CC(C)C[C@H](NC(=O)[C@H](C)NC(=O)[C@@H]1CCCN1C(=O)[C@@H](N)CC(C)C)C(=O)N[C@@H](CC(=O)O)C(=O)N1CCC[C@H]1C(=O)N[C@H](C(=O)N[C@@H](CCCCN)C(=O)N[C@@H](CCCNC(=N)N)C(=O)N[C@@H](Cc1c[nH]c2ccccc12)C(=O)N[C@@H](Cc1ccccc1)C(=O)N[C@@H](Cc1ccccc1)C(=O)N[C@@H](CCC(=O)O)C(=O)N[C@H](C(=O)N[C@@H](CCCCN)C(=O)O)[C@@H](C)O)[C@@H](C)O [Peptide 1] (H-LPALDPTKRWFFETK-OH; N-terminus and C-terminus assumed) |  | 1.35 ± 0.23 | 1.09 ± 0.17 | 1.10 ± 0.09 | 1.6 ± 0.27 | 1.41 ± 03 | stimulation of CK activity in rat tissues ([2]; higher concentration 2.5 mg/rat, data not shown): stimulated the CK activity in the epiphysis and aorta as well; increase in the specific activity of creatine kinase (CK) in rat tissues ([2]; immature female rats, 4 hours, estradiol 5 μg/rat, peptides 0.5 mg/rat): increase in CK activity only in the uterus and left ventricle; inhibition of the binding of immobilized estradiol ovalbumin conjugate to other high affinity anti-E2 antibodies [3]: not; competing with solid phase hapten protein conjugates for the binding sites of homologous anti-steroidal antibodies [4]: not capable of competing; binding to ER β ([5]; FIG. 3): none; IC50 to ERβ ([5]; Table 5): none; pIC50 [6]: ~5.30; pIC50 [7]: 6.00; inhibition of the binding of immobilized estradiol ovalbumin conjugate to anti-E2, clone 15 ([8]; ELISA, peptide at a concentration of 0.5 mM): 36%; recognition of anti-E2 mAb clone 15 ([8]; initial binding studies): recognized |
| O=C(c1ccc(OCCN2CCCCC2)cc1)c1c(-c2ccc(O)cc2)sc2cc(O)ccc12 [Raloxifene, raloxifene] |  | 1.63 ± 0.04 | 1.75 ± 0.13 | 1.41 ± 0.05 | 0.99 ± 0.17 | 1.34 ± 0.11 | blocking of the increase in CK activity caused by estradiol or peptides 1 and 2 ([2]; rats treated with combination with raloxifene): blocked in all the tissues with the exception of the epiphysis |
| CC[C@H](C)[C@H](NC(=O)[C@@H](NC(=O)[C@H](CO)NC(=O)[C@H](CC(C)C)NC(=O)[C@H](Cc1ccccc1)NC(=O)[C@H](CCC(N)=O)NC(=O)[C@H](C)NC(=O)[C@H](CCC(N)=O)NC(=O)[C@H](CC(=O)O)NC(=O)[C@H](Cc1c[nH]c2ccccc12)NC(=O)[C@@H]1CCCN1C(=O)[C@H](Cc1c[nH]cn1)NC(=O)[C@H](CC(N)=O)NC(=O)[C@@H](N)C(C)C)[C@@H](C)O)C(=O)O [Peptide 3] (H-VNHPWDQAQFLSTI-OH) | ~4.00 |  |  |  |  |  |  |
